From patent publication US20260062422A1 (Halda Therapeutics OpCo, Inc., priority 2022, published 2026) come the findings set out here.

Broadly, the GI50 is the concentration giving 50% growth inhibition. Low values mean greater sensitivity of the cells, high ones lower sensitivity of the cells.

The test system of test [1] is T-Rex 293 cell line SC3 cells having increased expression of androgen receptor protein due to exposure to doxycycline. Put plainly: Cellular growth inhibition, T-Rex 293 SC3 cells with doxycycline (androgen receptor induced), CellTiter-Glo. The format is cell-based. As to conditions: T-Rex 293 SC3 cells with 10 ng/mL doxycycline (increased androgen receptor expression), 72 hours. An outline of the steps:
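With DMSO (0.5%) vehicle as negative control, compounds treated SC3 cells for 72 h in medium containing charcoal-dextran FBS ± doxycycline. This T-Rex 293 clone expresses transfected wild-type AR on induction. Readout: CellTiter-Glo 2.0; GI50 by nonlinear regression.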

The subject of test [2] is T-Rex 293 cell line SC cells lacking increased expression of progesterone receptor isoform B protein. As to the kind of experiment: Cellular growth inhibition, T-Rex 293 SC cells without doxycycline, Example 45. The format is cell-based. Conditions: T-Rex 293 SC cells not exposed to doxycycline, 72 hours treatment, CellTiter-Glo 2.0. For orientation: Cellular ATP, detected with luciferase, serves as a proxy for viable cell number.

Bounds are passed on as bounds.

Take `Cc1sc2c(c1C)C(c1ccc(CC3CC4(CCN(c5ccc(C(=O)N[C@H]6C(C)(C)[C@H](Oc7ccc(C#N)c(Cl)c7)C6(C)C)cn5)CC4)C3)cc1)=N[C@@H](Cc1ncco1)c1nnc(C)n1-2` [Compound I-143]: the 50% growth inhibitory concentration (GI50) in test [1] and in test [2] was less than 0.5 µM in each case.
As for `Cc1sc2c(c1C)C(c1ccc(N3CC(N4CCN(c5ncc(C(=O)N[C@H]6C(C)(C)[C@H](Oc7ccc(C#N)c(Cl)c7)C6(C)C)cn5)CC4)C3)cc1)=NC(Cc1ncco1)c1nnc(C)n1-2` (stereo partly shown) [Compound I-208], the 50% growth inhibitory concentration (GI50) in test [1] and in test [2] was less than 0.5 µM in each case.
